Experimental data as given in EP0562479A1, “1-Phenyl-5-heterocyclic-1H-1, 2,4-triazole-3-carboxamide derivates, process for preparation of the same, and fungicidal composition comprising the same” (KUREHA CHEMICAL INDUSTRY CO., LTD., priority 1992, dated 1993).

Tested on: Botrytis cinerea
Test: Test for controlling effect against cucumber gray mold
Assay type: in vivo, Botrytis cinerea on cucumber
Conditions: wettable powder sprayed 5 ml per pot, lesion areas three days after inoculation
Procedure: Test Example 1 〈Test for controlling effect against cucumber gray mold (Botrytis cinerea on cucumber)〉 A wettable powder similar to that prepared in Formulation Example 2, diluted with water to a prescribed concentration, was sprayed onto the cucumber plants of the first leaf stage (variety: […], one plant per pot) growing in an unglazed pot (diameter: 10 cm), in an amount of 5 ml per pot. After drying the sprayed leaves in the air, a circular cutting (diameter: 4 mm) of agar containing Botrytis cinerea, which had been cultured in advance in a potato-sucrose agar medium at 20°C for 3 days, was attached directly to the center part of the leaves, and the pots maintained at 20-22°C under high humidity conditions. Three days after the inoculation, lesion areas of the disease were examined to calculate the inhibition rate according to the following equation. [formula]

| Compound | Inhibition rate (%) at concentration of 500 ppm Cucumber gray mold [%] |
| --- | --- |
| CCCCOC(c1cccc(-n2nc(C(N)=O)nc2-c2cccc(C)n2)c1)C(C)C (centres unmarked) [Compound 7, 1-[3-[(1-butoxy-2-methyl)propyl]phenyl]-5-(6-methylpyridin-2-yl)-1H-1,2,4-triazole-3-carboxamide] | 95 |
| CCCCOC(c1cccc(-n2nc(C(N)=O)nc2-c2sccc2C)c1)C(C)C (centres unmarked) [Compound 16, 1-[3-[(1-butoxy-2-methyl)propyl]phenyl]-5-(3-methylthiophen-2-yl)-1H-1,2,4-triazole-3-carboxamide] | 94 |
